Reference: article PMC10058229, “Diverse cytomotive actins and tubulins share a polymerization switch mechanism conferring robust dynamics” (Science Advances, 2023)

Biological target: T1, BtubA*B (Prosthecobacter dejongeii, UniProt A0A7W7YIU5+A0A7W7YJ10, A0A7W7YIU5:R284G/A0A7W7YIU5:K286D/A0A7W7YIU5:F287G)
T1 construct: gene HNQ64_001272; BtubA M-loop triple mutant coexpressed with BtubB in E. coli C41(DE3); no tag mentioned; single protofilament polymer; Methods once print R286D instead of K286D
T1 sequence (A0A7W7YIU5 1-473 R284G/K286D/F287G): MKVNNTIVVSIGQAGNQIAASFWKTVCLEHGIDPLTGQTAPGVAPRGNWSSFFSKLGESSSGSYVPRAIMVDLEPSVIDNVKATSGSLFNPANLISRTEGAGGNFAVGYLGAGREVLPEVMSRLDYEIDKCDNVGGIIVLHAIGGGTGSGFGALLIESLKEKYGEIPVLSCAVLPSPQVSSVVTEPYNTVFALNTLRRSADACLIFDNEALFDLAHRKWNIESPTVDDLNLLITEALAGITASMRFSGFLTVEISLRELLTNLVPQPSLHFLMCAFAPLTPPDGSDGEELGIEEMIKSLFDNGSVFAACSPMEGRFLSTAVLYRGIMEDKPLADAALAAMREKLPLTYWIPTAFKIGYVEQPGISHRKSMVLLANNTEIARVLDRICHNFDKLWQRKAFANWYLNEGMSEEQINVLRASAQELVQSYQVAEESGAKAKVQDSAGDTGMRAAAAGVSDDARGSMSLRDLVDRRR
T1 sequence (A0A7W7YJ10 1-426): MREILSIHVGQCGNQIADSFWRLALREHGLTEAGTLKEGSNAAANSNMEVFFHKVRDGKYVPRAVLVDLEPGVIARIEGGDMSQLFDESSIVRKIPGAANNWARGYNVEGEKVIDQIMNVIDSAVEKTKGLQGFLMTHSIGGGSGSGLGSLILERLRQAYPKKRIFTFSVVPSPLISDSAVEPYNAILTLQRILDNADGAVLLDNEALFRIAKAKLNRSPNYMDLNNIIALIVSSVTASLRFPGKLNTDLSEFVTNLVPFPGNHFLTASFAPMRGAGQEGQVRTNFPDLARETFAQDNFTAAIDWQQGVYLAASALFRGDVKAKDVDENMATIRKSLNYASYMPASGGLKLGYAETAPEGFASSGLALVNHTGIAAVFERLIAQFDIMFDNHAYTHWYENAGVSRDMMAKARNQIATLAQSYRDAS
Experiment: polymerization seen by cryo-EM (~[…] Å map)
Type: biochemical
Conditions: 5 mM GTP, 5 mM magnesium acetate, pH 7.7, 20 °C; nucleotide not resolved

Nc1nc2c(ncn2[C@@H]2O[C@H](COP(=O)(O)OP(=O)(O)OP(=O)(O)O)[C@@H](O)[C@H]2O)c(=O)[nH]1 [GTP]
polymerization seen by cryo-EM (~8 Å map): BtubA*B polymerizes in the presence of GTP and GMPCPP to form straight single protofilaments
